# Experimental data from patent publication US11000033B2, “Ketone or oxime compound, and herbicide” (NISSAN CHEMICAL CORPORATION, priority 2014, dated 2021).
# What was measured:
# Format in all cases: in vivo
# Digitaria ciliaris [1] = assay: Test Example 4: herbicidal effect by soil treatment (symbol F); conditions: application herbicide amount 320 g/ha
# In short: (§1)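 Seeds were sown in sterilized diluvial soil, covered with about 1.5 cm of soil, and the soil surface was sprayed with a water-diluted emulsion of the compound at a predetermined rate. Plants grew in a greenhouse at 25° C. to 30° C.; effects were scored visually 3 weeks after application.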
# Setaria viridis = assay: Test Example 4: herbicidal effect by soil treatment (symbol G); conditions: application herbicide amount 320 g/ha
# In short: as §1
# transplanted rice plant = assay: Test Example 1: effect on crop, application before weed generation in submerged conditions (symbol a); conditions: application herbicide amount 320 g/ha
# In short: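 Alluvial soil pots flooded to 4 cm water, sown with Echinochloa oryzacola, Scirpus juncoides and Monochoria vaginalis, then transplanted with 2.5 leaf stage rice seedlings; pre-emergence application. Greenhouse 25° C. to 30° C.; scored 0–5 by herbicidal ratio 3 weeks after application.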
# Digitaria ciliaris [2] = assay: Test Example 5: herbicidal effect by foliage application, plastic box (symbol F); conditions: 320 g/ha, 3 weeks after application
# In short: (§2)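 Visual herbicidal score, taken three weeks post-application, of seedlings sprayed on the foliage with water-diluted emulsion at a predetermined amount; plants were 14 days old, greenhouse-raised at 25° C. to 30° C.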
# [3] = system: directly sowed rice plant; assay: Test Example 3: effect on crop by foliage application, Wagner pot (symbol b); conditions: application herbicide amount 320 g/ha
# In short: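 Wagner pot (1/10000 are), alluvial soil, submerged 0.1–0.5 cm; sown E. crus-galli var. crus-galli, L. chinensis, C. difformis, rice; greenhouse 25–30 °C.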
# Stellaria media = assay: Test Example 5: herbicidal effect by foliage application, plastic box (symbol P); conditions: 320 g/ha, 3 weeks after application
# In short: as §2
# [4] = system: Echinochloa crus-galli var. crus-galli; assay: Test Example 3: herbicidal effect by foliage application, Wagner pot (symbol H); conditions: application herbicide amount 320 g/ha
# In short: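 Scoring took place 3 weeks after application, using fixed criteria. Plants had been raised from seed for 14 days at 25 to 30 °C in submerged alluvial soil before a diluted emulsion of the test compound was sprayed uniformly on the leaves.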
# Galium spurium = assay: Test Example 4: herbicidal effect by soil treatment (symbol Q); conditions: application herbicide amount 320 g/ha
# In short: as §1
# Amaranthus retroflexus = assay: Test Example 4: herbicidal effect by soil treatment (symbol N); conditions: application herbicide amount 320 g/ha
# In short: as §1
# Chenopodium album = assay: Test Example 5: herbicidal effect by foliage application, plastic box (symbol O); conditions: 320 g/ha, 3 weeks after application
# In short: as §2
# wheat = assay: Test Example 4: effect on crop by soil treatment (symbol e); conditions: application herbicide amount 320 g/ha
# In short: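 Grown at 25° C. to 30° C. in a greenhouse, the crops came from seed sown spot-wise in sterilized diluvial soil under roughly 1.5 cm of covering soil.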
# Alopecurus myosuroides = assay: Test Example 5: herbicidal effect by foliage application, plastic box (symbol J); conditions: 320 g/ha, 3 weeks after application
# In short: as §2
# Lolium multiflorum Lam. [5] = assay: Test Example 4: herbicidal effect by soil treatment (symbol K); conditions: application herbicide amount 320 g/ha
# In short: as §1
# Abutilon theophrasti = assay: Test Example 5: herbicidal effect by foliage application, plastic box (symbol M); conditions: 320 g/ha, 3 weeks after application
# In short: as §2
# beet = assay: Test Example 5: effect on crop by foliage application, plastic box (symbol f); conditions: 320 g/ha, 3 weeks after application
# In short: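 Greenhouse culture at 25° C. to 30° C. followed spot-like sowing into sterilized diluvial soil, with seed covered by roughly 1.5 cm of soil.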
# Veronica persica = assay: Test Example 4: herbicidal effect by soil treatment (symbol R); conditions: application herbicide amount 320 g/ha
# In short: as §1
# Lolium multiflorum Lam. [6] = assay: Test Example 5: herbicidal effect by foliage application, plastic box (symbol K); conditions: 320 g/ha, 3 weeks after application
# In short: as §2
SMILES,"Herbicidal effect grade, F: Digitaria ciliaris (Digitaria ciliaris [1])","Herbicidal effect grade, G: Setaria viridis (Setaria viridis)","Effect grade on crop, a: transplanted rice plant (transplanted rice plant)","F: Digitaria ciliaris, herbicidal effect (criteria of Test Example 1) (Digitaria ciliaris [2])","effect on crop b (directly sowed rice plant), grade 0-5 [3]","P: Stellaria media, herbicidal effect (criteria of Test Example 1) (Stellaria media)","herbicidal effect on H (Echinochloa crus-galli var. crus-galli), grade 0-5 [4]","Herbicidal effect grade, Q: Galium spurium (Galium spurium)","Herbicidal effect grade, N: Amaranthus retroflexus (Amaranthus retroflexus)","O: Chenopodium album, herbicidal effect (criteria of Test Example 1) (Chenopodium album)","Effect on crop grade, e: wheat (wheat)","J: Alopecurus myosuroides, herbicidal effect (criteria of Test Example 1) (Alopecurus myosuroides)","Herbicidal effect grade, K: Lolium multiflorum Lam. (Lolium multiflorum Lam. [5])","M: Abutilon theophrasti, herbicidal effect (criteria of Test Example 1) (Abutilon theophrasti)","f: beet, effect on crop (criteria of Test Example 1) (beet)","Herbicidal effect grade, R: Veronica persica (Veronica persica)","K: Lolium multiflorum Lam., herbicidal effect (criteria of Test Example 1) (Lolium multiflorum Lam. [6])"
CC(=O)CC1CC(O)=C(c2c(C)cc(OCC(F)(F)F)cc2C)C1=O (stereo not drawn) [7-015],5 (Herbicidal ratio of 90% or more (almost completely withered)),5 (Herbicidal ratio of 90% or more (almost completely withered)),5 (Herbicidal ratio of 90% or more (almost completely withered)),5 (Herbicidal ratio of 90% or more (almost completely withered)),5 (Herbicidal ratio of 90% or more (almost completely withered)),1 (Herbicidal ratio of 5% or higher and lower than 20%),5 (Herbicidal ratio of 90% or more (almost completely withered)),0 (Herbicidal ratio of 5% or lower (almost no effect)),0 (Herbicidal ratio of 5% or lower (almost no effect)),3 (Herbicidal ratio of 40% or higher and lower than 70%),4 (Herbicidal ratio of 70% or higher and lower than 90%),5 (Herbicidal ratio of 90% or more (almost completely withered)),5 (Herbicidal ratio of 90% or more (almost completely withered)),2 (Herbicidal ratio of 20% or higher and lower than 40%),0 (Herbicidal ratio of 5% or lower (almost no effect)),0 (Herbicidal ratio of 5% or lower (almost no effect)),5 (Herbicidal ratio of 90% or more (almost completely withered))
CON=C(C)CC1CC(OC(=O)N2CCOCC2)=C(c2c(C)cc(-c3ccc(F)c(Cl)c3)cc2C)C1=O (stereo not drawn) [6-093],5 (Herbicidal ratio of 90% or more (almost completely withered)),5 (Herbicidal ratio of 90% or more (almost completely withered)),5 (Herbicidal ratio of 90% or more (almost completely withered)),5 (Herbicidal ratio of 90% or more (almost completely withered)),5 (Herbicidal ratio of 90% or more (almost completely withered)),4 (Herbicidal ratio of 70% or higher and lower than 90%),5 (Herbicidal ratio of 90% or more (almost completely withered)),0 (Herbicidal ratio of 5% or lower (almost no effect)),0 (Herbicidal ratio of 5% or lower (almost no effect)),5 (Herbicidal ratio of 90% or more (almost completely withered)),0 (Herbicidal ratio of 5% or lower (almost no effect)),5 (Herbicidal ratio of 90% or more (almost completely withered)),1 (Herbicidal ratio of 5% or higher and lower than 20%),3 (Herbicidal ratio of 40% or higher and lower than 70%),3 (Herbicidal ratio of 40% or higher and lower than 70%),4 (Herbicidal ratio of 70% or higher and lower than 90%),5 (Herbicidal ratio of 90% or more (almost completely withered))
CC(=O)CC1CC(O)=C(c2c(C)cc(C)cc2Br)C1=O (stereo not drawn) [7-011],5 (Herbicidal ratio of 90% or more (almost completely withered)),0 (Herbicidal ratio of 5% or lower (almost no effect)),1 (Herbicidal ratio of 5% or higher and lower than 20%),4 (Herbicidal ratio of 70% or higher and lower than 90%),5 (Herbicidal ratio of 90% or more (almost completely withered)),3 (Herbicidal ratio of 40% or higher and lower than 70%),5 (Herbicidal ratio of 90% or more (almost completely withered)),0 (Herbicidal ratio of 5% or lower (almost no effect)),0 (Herbicidal ratio of 5% or lower (almost no effect)),3 (Herbicidal ratio of 40% or higher and lower than 70%),0 (Herbicidal ratio of 5% or lower (almost no effect)),4 (Herbicidal ratio of 70% or higher and lower than 90%),4 (Herbicidal ratio of 70% or higher and lower than 90%),4 (Herbicidal ratio of 70% or higher and lower than 90%),0 (Herbicidal ratio of 5% or lower (almost no effect)),0 (Herbicidal ratio of 5% or lower (almost no effect)),5 (Herbicidal ratio of 90% or more (almost completely withered))
